Source: publication PMC9181938, “Fluorinated Analogues of Lepidilines A and C: Synthesis and Screening of Their Anticancer and Antiviral Activity” (Molecules, 2022)
Read-outs that look alike come from different tables or passages of the source.

Assays:
[1] = Cytotoxicity MTT assay (0.1–1000 µM), CC50; type: cell-based, Macaca mulatta; settings: Macaca mulatta, LLC-MK2 cells, LLC-MK2, MTT, 48 h; read-out: CC50 Normal Cell Lines LLC-MK2
[2] = tested on: LLC-MK2 cells; assay: Cytotoxicity MTT assay (0.1–1000 µM), CC50; type: cell-based, Macaca mulatta
[3] = Cytotoxicity screening at 10 µM (MTT); type: cell-based, Cercopithecus aethiops; settings: Cercopithecus aethiops, Vero cells, read-out: Cell line (viability %) Vero
[4] = tested on: LLC-MK2 cells; assay: Cytotoxicity screening at 10 µM (MTT); type: cell-based, Macaca mulatta; settings: 48 h
[5] = Cytotoxicity screening at 10 µM (MTT); type: cell-based, Mus musculus; settings: Mus musculus, NCTC clone 929 cells, read-out: Cell line (viability %) NCTC clone 929
[6] = Cytotoxicity screening at 10 µM (MTT); type: cell-based, Human; settings: human, MRC-5 cells, read-out: Cell line (viability %) MRC-5
[7] = Cytotoxicity screening at 10 µM (MTT); type: cell-based, Human; settings: human, HeLa cells, read-out: Cell line (viability %) HeLa
[8] = tested on: Human parainfluenza virus type 3 (HPIV-3); assay: Antiviral activity assay (0.1–1000 µM), IC50; type: cell-based
Procedure: (§1) Antiviral properties of compounds 1e–1g, 1e[PF6], 8a–8d, and 9a were assessed against five viruses: Human herpesvirus 1 (HSV-1, VR-539), Human parainfluenza virus type 3 (HPIV-3, VR-93), Human adenovirus 5 (AdV5, VR-5), Human herpesvirus 5 (HCMV, VR-977), and Encephalomyocarditis virus (EMCV, VR-1479). Viruses were purchased from the American Type Culture Collection (ATCC, Manassas, VA, USA).
(§2) All tested compounds were dissolved in DMSO (dimethyl sulfoxide, Sigma-Aldrich, Darmstadt, Germany) and then suspended in Minimum Essential Medium (MEM; Sigma-Aldrich, Darmstadt, Germany) supplemented with 2% heat-inactivated fetal bovine serum (FBS; Sigma-Aldrich, Darmstadt, Germany), 2 mM L-glutamine (Sigma-Aldrich, Darmstadt, Germany), and 100 units/mL penicillin G with […] streptomycin (Sigma-Aldrich, Darmstadt, Germany).
(§3) Investigated cells were propagated in Minimum Essential Medium (MEM; Sigma-Aldrich, Darmstadt, Germany) supplemented with 10% heat-inactivated fetal bovine serum (FBS; Sigma-Aldrich, Darmstadt, Germany) and 100 units/mL penicillin G with […] streptomycin (Sigma-Aldrich, Darmstadt, Germany). After reaching 80–90% confluency, cells were harvested with trypsin (Life Technologies, Warsaw, Poland) and seeded into 96-well microplates at 2 × 10^5 cells/mL after overnight incubation of cells at 37 °C in a humidified atmosphere containing 5% CO2.
(§4) The culture medium was removed from confluent cells grown in 96-well microplates, and the cells were inoculated with virus solutions in MEM supplemented with 2% FBS and antibiotics (HSV-1 MOI 0.005, 1000 virions/mL; HPIV-3 MOI 0.01, 2000 virions/mL; AdV5 MOI 0.005, 1000 virions/mL; EMCV 0.005, 1000 virions/mL; HCMV 20 PFU/well (plaque-forming units per well). After a 1-h (HSV-1, HPIV-3, AdV5, and EMCV) or 2-h adsorption period (HCMV), residual viral particles were removed, and infected cells were further incubated with MEM supplemented with 2% FBS containing compound concentrations in the range from 0.1 to 1000 µM [38]. All experiments were carried out in triplicate. The cell monolayers were incubated with the investigated compounds at 37 °C in a humidified atmosphere containing 5% CO2 until a cytopathic effect (CPE) was visible. Viral infection was evaluated by the MTT assay (as described previously) or plaque reduction assay. HCMV plaques were counted under an inverted microscope, Olympus IX73 (Olympus, Tokyo, Japan). Antiviral activity was expressed as the concentration required to reduce the number of viral plaques to 50% of the control (virus-infected but untreated).

[9] = tested on: Encephalomyocarditis virus (EMCV); assay: Antiviral screening at 10 µM; type: cell-based; settings: Cardiovirus A, EMCV-infected cells, read-out: Cell line (viability %) EMCV
Procedure: as §1, with “1a, 1c, 1a[PF6], 1c[PF6], 9b[PF6], 9c[PF6], 10a–10d, 2a,” for “1e–1g, 1e[PF6], 8a–8d,”, “2b” for “9a”
as §2
(§5) Vero, LLC-MK2, NCTC clone 929, MRC-5, and HeLa cells were propagated in Minimum Essential Medium (MEM; Sigma-Aldrich, Darmstadt, Germany) supplemented with 10% heat-inactivated fetal bovine serum (FBS; Sigma-Aldrich, Darmstadt, Germany) and 100 units/mL penicillin G with […] streptomycin (Sigma-Aldrich, Darmstadt, Germany). Upon reaching 80–90% confluency, cells were harvested with 0.25% trypsin in 1 mM EDTA (Life Technologies, Warsaw, Poland) and seeded onto 96-well microplates at 2 × 10^5 cells/mL. After overnight incubation of cells at 37 °C in a humidified atmosphere containing 5% CO2, the culture medium was removed, and cells were inoculated with the respective virus solution in MEM supplemented with 2% FBS and antibiotics (HSV-1 MOI 0.005, 1000 virions/mL; HPIV-3 MOI 0.01, 2000 virions/mL; AdV5 MOI 0.005, 1000 virions/mL, EMCV MOI 0.005, 1000 virions/mL, HCMV 20 PFU (plaque forming units) per well). After a 1-h (HSV-1, HPIV-3, AdV5, and EMCV) or 2-h adsorption period (HCMV), the residual virus was removed, and the infected cells were further incubated with a 100 μL freshly prepared solution of tested compounds diluted with a maintenance medium supplemented with 2% FBS to obtain compound concentrations of 10 µM. The final concentration of DMSO in the medium was 0.1%. All experiments were carried out in triplicate. The cells monolayers were incubated with the compounds at 37 °C in a humidified atmosphere containing 5% CO2 until the typical cytopathic effect (CPE) was visible. Viral infection was evaluated by the MTT assay or plaque reduction assay (HCMV). After incubation with drugs, the cells were treated with 3-(4,5-dimethylthiazol-2-yl)-2,5-diphenyltetrazolium bromide dye solution (MTT, Sigma-Aldrich, Darmstadt, Germany) (25 μL, 5 mg/mL) for 2 h and lysed with solvent solution (100 μL) containing: DMF (Sigma-Aldrich, Darmstadt, Germany) (45 mL), SDS (Sigma-Aldrich, Darmstadt, Germany) (13.5 g), and distilled water (55 mL). After overnight incubation at 37 °C, the optical density at 550 nm and a reference wavelength of 670 nm were measured on a microplate spectrophotometer, Varioskan Lux (Thermo Fisher Scientific, Waltham, MA, USA). The number of HCMV plaques was counted under an inverted microscope Olympus IX73 (Olympus, Tokyo, Japan).

[10] = tested on: Human adenovirus 5 (AdV5); assay: Antiviral screening at 10 µM; type: cell-based; settings: Human mastadenovirus C, AdV5-infected cells, read-out: Cell line (viability %) AdV5
Procedure: as §1, with “1a, 1c, 1a[PF6], 1c[PF6], 9b[PF6], 9c[PF6], 10a–10d, 2a,” for “1e–1g, 1e[PF6], 8a–8d,”, “2b” for “9a”
as §2, §5

[11] = tested on: Human herpesvirus 1 (HSV-1); assay: Antiviral screening at 10 µM; type: cell-based; settings: Human alphaherpesvirus 1, antiviral screening, HSV-1-infected cells, read-out: Cell line (viability %) HSV-1
Procedure: as §1, with “1a, 1c, 1a[PF6], 1c[PF6], 9b[PF6], 9c[PF6], 10a–10d, 2a,” for “1e–1g, 1e[PF6], 8a–8d,”, “2b” for “9a”
as §2, §5

[12] = tested on: Human parainfluenza virus type 3 (HPIV-3); assay: Antiviral screening at 10 µM; type: cell-based; settings: Human respirovirus 3, antiviral screening, HPIV-3-infected cells, read-out: Cell line (viability %) HPIV-3
Procedure: as §1, with “1a, 1c, 1a[PF6], 1c[PF6], 9b[PF6], 9c[PF6], 10a–10d, 2a,” for “1e–1g, 1e[PF6], 8a–8d,”, “2b” for “9a”
as §2, §5

[13] = tested on: Vero cells; assay: Cytotoxicity MTT assay (0.1–1000 µM), CC50; type: cell-based, Cercopithecus aethiops; settings: 48 h
[14] = Cytotoxicity MTT assay (0.1–1000 µM), CC50; type: cell-based, Mus musculus; settings: Mus musculus, NCTC clone 929 cells, NCTC clone 929, MTT, 48 h; read-out: CC50 Normal Cell Lines NCTC Clone 929
[15] = tested on: MRC-5 cells; assay: Cytotoxicity MTT assay (0.1–1000 µM), CC50; type: cell-based, Human; settings: MRC-5, MTT, 48 h; read-out: CC50 Normal Cell Lines MRC-5
[16] = tested on: HeLa cells; assay: Cytotoxicity MTT assay (0.1–1000 µM), CC50; type: cell-based, Human; settings: MTT, 48 h, read-out: CC50 Cancer Cell Lines HeLa
[17] = Cytotoxicity MTT assay (0.1–1000 µM), CC50; type: cell-based, Human; settings: human, A549 cells, read-out: CC50 Cancer Cell Lines A549
[18] = Cytotoxicity MTT assay (0.1–1000 µM), CC50; type: cell-based, Human; settings: human, HepG2 cells, read-out: CC50 Cancer Cell Lines HepG2
[19] = tested on: Human herpesvirus 5 (HCMV); assay: Antiviral activity assay (0.1–1000 µM), IC50, plaque reduction; type: cell-based; settings: Human betaherpesvirus 5, 20 PFU/well
Procedure: as §1, §2, §3, §4

[20] = tested on: Encephalomyocarditis virus (EMCV); assay: Antiviral activity assay (0.1–1000 µM), IC50; type: cell-based; settings: Cardiovirus A, MOI 0.005, read-out: IC50 EMCV
Procedure: as §1, §2, §3, §4

[21] = tested on: Human adenovirus 5 (AdV5); assay: Antiviral activity assay (0.1–1000 µM), IC50; type: cell-based; settings: Human mastadenovirus C; AdV5, MOI 0.005; read-out: IC50 AdV5
Procedure: as §1, §2, §3, §4

[22] = tested on: Human herpesvirus 1 (HSV-1); assay: Antiviral activity assay (0.1–1000 µM), IC50; type: cell-based; settings: Human alphaherpesvirus 1; HSV-1, MOI 0.005
Procedure: as §1, §2, §3, §4

[23] = Cytotoxicity MTT assay (0.1–1000 µM), CC50; type: cell-based, Cercopithecus aethiops; settings: Cercopithecus aethiops, Vero cells, read-out: CC50 Normal Cell Lines Vero
[24] = Cytotoxicity MTT assay (0.1–1000 µM), CC50; type: cell-based, Human; settings: human, MRC-5 cells, MRC-5, MTT, read-out: CC50 Normal Cell Lines MRC-5
[25] = Cytotoxicity MTT assay (0.1–1000 µM), CC50; type: cell-based, Human; settings: human, HeLa cells, MTT, 48 h, read-out: CC50 Cancer Cell Lines HeLa
[26] = Human respirovirus 3, HPIV-3, MOI 0.01, read-out: IC50 HPIV-3

COc1cccc(Cn2c[n+](Cc3ccccc3)c(C)c2C)c1 [Compound 1c, lepidiline C, reference compound]
CC50 at 48 h [1]: < 80 µM | CC50 ([2]; Table S2, range 0.1-1000 µM, LLC-MK2, read-out: Cell line (CC50 M) LLC-MK2): 28.3 ± 5.86 µM | viability at 48 h, 10 µM [3]: 90.7% | Cell line (viability %) LLC-MK2 [4]: 78.4% | viability at 48 h, 10 µM [5]: 8.8% | viability at 48 h, 10 µM [6]: 76.7% | viability at 48 h, 10 µM [7]: 8.9% | IC50 ([8]; Table S4, range 0.1-1000 µM, HPIV-3, read-out: IC50 (M) HPIV-3): > 2.83e-05 M | viability at 10 µM [9]: 7.7% | viability at 10 µM [10]: 17.9% | viability at 10 µM [11]: 18.6% | viability at 10 µM [12]: 90.4%

Cc1c(C)[n+](Cc2cccc(F)c2)cn1Cc1ccccc1.[Cl-] [Compound 1e, 1-Benzyl-3-(3-fluorobenzyl)-4,5-dimethylimidazolium chloride]
CC50 ([13]; read-out: CC50 Normal Cell Lines Vero): 22.7 ± 1.53 µM | CC50 ([2]; LLC-MK2, MTT, 48 h, read-out: CC50 Normal Cell Lines LLC-MK2): 53.5 ± 2.18 µM | CC50 at 48 h [14]: 79.2 ± 1.44 µM | CC50 [15]: 52.7 ± 0.577 µM | CC50 [16]: 0.039 ± 0.001 µM | CC50 at 48 h [17]: 37.7 ± 3.79 µM | CC50 at 48 h [18]: 423 ± 7.64 µM | IC50 [19]: > 52.7 µM | IC50 [20]: > 79.2 µM | IC50 [21]: > 0.039 µM | IC50 [22]: > 22.7 µM | IC50 [8, 26]: > 5.35e-05 M | melting point: 190 to 192 °C

Cc1c(C)[n+](Cc2cccc(C(F)(F)F)c2)cn1Cc1ccccc1.[Cl-] [Compound 1g, 1-Benzyl-4,5-dimethyl-3-[3-(trifluoromethyl)benzyl]imidazolium chloride]
CC50 at 48 h [23]: 0.107 ± 0.012 µM | CC50 Normal Cell Lines Vero [13]: toxic | CC50 at 48 h [1]: 66.2 ± 2.25 µM | CC50 at 48 h [14]: 30 ± 2 µM | CC50 at 48 h [24]: 54.3 ± 1.16 µM | CC50 at 48 h [25]: 0.053 ± 0.006 µM | CC50 at 48 h [17]: 10.3 ± 1.04 µM | CC50 at 48 h [18]: 130 ± 5 µM | IC50 [19]: > 54.3 µM | IC50 [20]: > 30 µM | IC50 [21]: > 0.053 µM | IC50 [22]: > 0.107 µM | IC50 [8, 26]: > 6.62e-05 M | melting point: 120 to 122 °C
